Experimental findings from patent US20250302728A1, “FRAGRANCE COMPOSITIONS AND PRODUCTS CONVEYING A POSITIVE MOOD” (SYMRISE AG, priority 2022, published 2025) are described below.

The test system of test [1] is subject's mood. Briefly: Actimood scoring (correlation of EmoChar and IRT values). The class given is in vivo, human. The protocol: (§1) 1. Sensorial and Emotional Evaluation of Fragrance Raw Materials Each fragrance was evaluated by 30 subjects. At each appointment, the subject discovered fragrances in one sequence of four fragrances and two sequences of three fragrances separated by a 10-minute break.
(§2) For each fragrance, the subject discovered each fragrance on a card strip for 10 seconds. Between each product, a rest-period of 2 minutes was carried out during which the subject smelt their own body odour by smelling their wrist and the subject drank a little bit of water as well.
Emochar™ is a system of emotional characterization, scoring 7 main emotional dimensions from 0 to 10: • Stimulation: focus, attention, and awakening. • Relaxation: serenity, relaxation and appeasing. • Sensual: arousing, sexy and erotic. • Pleasure: liking, “gourmand” and satisfaction. • Tenderness: gentleness and softness. • Joy: excitement, fun and enthusiasm. • Self-esteem: confidence and assurance
Actimood scores are based on a correlation of EmoChar™ and IRT values. The scores are classified on a scale from 0 (low impact on subject's mood) to 3 (high impact on subject's mood).
Each score is obtained according to an algorithm, mixing verbal and non-verbal responses of volunteers to a specific product, or stimulus in a given context. The algorithm was developed from extensive field data, and in accordance with scientific literature and validated biobehavioral patterns associated to various emotional states.

Test [2] has as its system subject's mood. Briefly: Implicit response test (IRT). The test is classed as in vivo, human. Also on record: scale not given here. The protocol: as §1
During those appointments, the subjects smelt the fragrances in a random way.
as §2
The evaluation is carried out in standardized lighting conditions and under a monitored temperature (temperature 21±1.5° C.).
Implicit response tests (IRTs) are a family of tests and assess the subjects' immediate, “gut instinct” responses the fragrance raw materials.
The alleged underlying processes are based on how neurosciences describe the way our brain processes information. Indeed, our brain processes information through two systems: System 2, which is slow and processes conscious information, and System 1, which is fast and processes non-conscious information.
The IRT tests are performed at a computer, where the following words appear on the computer screen: • Energizing • Relaxing • Attractive • Sensual • Joyful • Protective • Confident • Fresh • Well-being
The subject has to click on the screen with the computer mouse to indicate their accordance or not of the word with the tested fragrance. In addition, the times to click the button are recorded.

Where [3] appears, read: relaxing and sleep enhancing mood (Composition 1, Table 3), scale 0 (low impact on subject's mood) to 3 (high impact).
[4] abbreviates: ingredients of the fragrance composition conveying an attractive mood (Table 2).
Where [5] appears, read: attractive mood (Table 11), scale 0 (low impact) to 3 (high impact).
The mark [6] stands for this setting: relaxing mood (Composition 2, Table 4), scale 0 (low impact) to 3 (high impact).
Where [7] appears, read: self-confident mood (Table 9), scale 0 (low impact) to 3 (high impact).
Where [8] appears, read: energizing mood (Table 7), scale 0 (low impact) to 3 (high impact).
[9] abbreviates: sensual mood (Table 8), scale 0 (low impact) to 3 (high impact).
[10] abbreviates: fresh mood (Table 12), scale 0 (low impact) to 3 (high impact).
[11] abbreviates: well-being mood (Table 10), scale 0 (low impact) to 3 (high impact).
The mark [12] stands for this setting: joyful mood (Table 6), scale 0 (low impact) to 3 (high impact).
Setting [13] is: ingredients of the fragrance composition conveying a fresh mood (Table 1).
The mark [14] stands for this setting: protective mood (Table 5), scale 0 (low impact) to 3 (high impact).

On to `COC(=O)c1c(C)cc(O)c(C)c1O` [EVERNYL 10% DPG, Methyl-2,4-dihydroxy-3,6-dimethyl-benzoate], for which the Actimood score in the test with subject's mood [1] (setting [3]) came to 1.

Turning to `O=c1ccc2ccccc2o1` [COUMARIN, chromen-2-one], the “IRT Score” value with subject's mood [2] (setting [4]) came out at 1347. Besides, the Actimood score in the test with subject's mood [1] (setting [5]) and with subject's mood [1] (setting [6]) was 3 in each case. In the case of `CC(C)CCC1CCC(O)CC1` (stereo not shown) [SYMROSE ®, 4-Isopentylcyclohexanol], the Actimood score in the test with subject's mood [1] (setting [3]) is on record as 2. In the test with subject's mood [1] (setting [7]), `COC(=O)c1ccccc1N` [METHYL ANTHRANILATE, Methyl anthranilate] gave an Actimood score of 0. As to `C=CC(C)CCCC(C)(C)O` (stereo not shown) [DIHYDRO MYRCENOL, 2,6-dimethyloct-7-en-2-ol], in the test on subject's mood [2] (setting [4]), the “IRT Score” value turned out to be 1599. For the same compound, the Actimood score with subject's mood [1] (setting [5]), with subject's mood [1] (setting [8]) and in the test with subject's mood [1] (setting [9]) was 3 throughout.

Consider `CC(C)C1CC=C(CCC=O)CC1` (single isomer, unassigned; (+)) [LILYBELLE ®, (+)-3-(4-Isopropylcyclohexen-1-yl)propanal], for which the values for the Actimood score in the test with subject's mood [1] (setting [10]) and in the test on subject's mood [1] (setting [11]) were 3 and 0, respectively. Compound `CC(C)=CCCC(C)CCO` (stereo not shown) [CITRONELLOL 950, 3,7-dimethyloct-6-en-1-ol] yielded an Actimood score with subject's mood [1] (setting [7]) of 1.

As for `CC(=O)/C=C/C1=C(C)CCCC1(C)C` [IONONE BETA, (E)-4-(2,6,6-trimethylcyclohexen-1-yl)but-3-en-2-one], the Actimood score in the test with subject's mood [1] (setting [12]) and in the test on subject's mood [1] (setting [11]) was 3 in each case.

On to `COC(OC)C(C)(C)CC=C(C)C` [AMAROCIT ®, 6,6-Dimethoxy-2,5,5-trimethylhex-2-ene], for which the “IRT Score” value with subject's mood [2] (setting [13]) stood at 1763. For the same compound, the Actimood score with subject's mood [1] (setting [8]) and in the test on subject's mood [1] (setting [10]) was 3 each time. Take `CC(=O)C1CC/C(C)=C/CC/C(C)=C/C/C=C/1C` (stereo not shown) [TRIMOFIX O, 1-[(2E,5E,9E)-2,6,10-trimethylcyclododeca-2,5,9-trien-1-yl]ethanone]: the Actimood score with subject's mood [1] (setting [14]) was 2.

Turning to `CCCCCCC1OC(=O)CC1C` (stereo not shown) [APRIFLOREN ®, 5-Hexyldihydro-4-methylfuran-2(3H)-one], the Actimood score with subject's mood [1] (setting [12]) and in the test with subject's mood [1] (setting [7]) was 2 each time. For `C=CCCCCOC(=O)C(C)CC` (stereo not shown) [FRUCTATE ®, Hex-5-enyl 2-methylbutanoate], in the test on subject's mood [1] (setting [9]), the Actimood score is listed as 0.

In the case of `CCCCCCCCC1CCC(=O)O1` (stereo not shown) [DODECALACTONE GAMMA 10% DPG, gamma-Dodecalactone], the Actimood score with subject's mood [1] (setting [3]) stood at 1. Consider `CC(C)=CCC/C(C)=C/C=O` [CITRAL FF, (2E)-3,7-Dimethylocta-2,6-dienal], for which the “IRT Score” value in the test with subject's mood [2] (setting [13]) is on record as 2393. For the same compound, the Actimood score in the test on subject's mood [1] (setting [8]) and with subject's mood [1] (setting [10]) was 3 throughout.

Consider `Cc1cccc(CC(C)(C)CO)c1` [MAJANTOL ®, beta,beta-3-Trimethyl-benzenepropanol], for which the Actimood score with subject's mood [1] (setting [7]) and with subject's mood [1] (setting [9]) was 2 in each case. In the case of `CCCCC[C@@H]1C(=O)CC[C@H]1CC(=O)OC` (racemic) [HEDIONE, methyl-2-[RAC-(1S,2S)-3-oxo-2-pentyl-cyclopentyl]acetate], the Actimood score in the test on subject's mood [1] (setting [10]) is 2; with subject's mood [1] (setting [12]) it was 0; in the test on subject's mood [1] (setting [3]), 2; in the test on subject's mood [1] (setting [11]), 0. On to `CC(C=O)Cc1ccc(C(C)C)cc1` (stereo not shown) [CYCLAMEN ALDEHYDE, 3-(4-isopropylphenyl)-2-methyl-propanal], for which the “IRT Score” value in the test on subject's mood [2] (setting [13]) worked out at 1005. The compound further yielded an Actimood score in the test with subject's mood [1] (setting [10]) of 3. In the case of `O=Cc1ccc2c(c1)OCO2` [HELIOTROPIN, 1,3-benzodioxole-5-carbaldehyde], the Actimood score with subject's mood [1] (setting [11]) was determined as 2. Regarding `CC(=O)OC1CCC(C(C)(C)C)CC1` (stereo not shown) [ORYCLON HC, (4-tert-butylcyclohexyl) acetate], the Actimood score in the test on subject's mood [1] (setting [3]) is given as 1. As to `CC(=O)/C=C/C1C(C)=CCCC1(C)C` (stereo not drawn) [IONONE ALPHA, (E)-4-(2,6,6-trimethylcyclohex-2-en-1-yl)but-3-en-2-one], the Actimood score turned out to be 3 with subject's mood [1] (setting [6]) and 1 with subject's mood [1] (setting [7]). As for `CCc1ccc(CC(C)(C)C=O)cc1` [FLORALOZONE, 3-(4-ethylphenyl)-2,2-dimethylpropanal], in the test with subject's mood [1] (setting [10]), the Actimood score came out at 3. For `CC(=O)C1(C)CC2=C(CCCC2(C)C)CC1C` (stereo not shown) [ISO E SUPER, 1-[2,3,8,8-tetramethyl-1,3,4,5,6,7-hexanhydronaphthalen-2-yl]ethanone], the Actimood score in the test with subject's mood [1] (setting [12]), in the test with subject's mood [1] (setting [9]) and with subject's mood [1] (setting [11]) was 2 throughout. As for `CC1COCc2cc3c(cc21)C(C)(C)C(C)C3(C)C` (stereo not shown) [GALAXOLIDE PURE, 4,6,6,7,8,8-hexamethyl-1,3,4,7-tetrahydrocyclopenta[G]isochromene], the Actimood score in the test on subject's mood [1] (setting [14]) came to 2; with subject's mood [1] (setting [6]), 3. In the case of `OCCc1ccccc1` [PHENYLETHYL ALCOHOL BA FREE, 2-phenylethanol], the Actimood score is 2 in the test on subject's mood [1] (setting [3]) and 1 with subject's mood [1] (setting [7]). In the test on subject's mood [1] (setting [12]), `COc1ccc(CCC(C)=O)cc1` [FRAMBINON ®, Methoxyphenylbutanone] came in with an Actimood score of 3. In turn, `CC/C=C\CCOC(C)=O` [HEXENYL ACETATE CIS-3 10% DPG, Hexenyl acetat] gave an Actimood score in the test on subject's mood [1] (setting [11]) of 0. For the compound `C=C1CCC=C(C)CCC2C1CC2(C)C` (stereo not shown) [CARYOPHYLLENE NAT. RECT., 4,11,11-trimethyl-8-methylene-bicyclo[7.2.0]undec-4-ene], the Actimood score in the test on subject's mood [1] (setting [6]) and with subject's mood [1] (setting [7]) was 3 each time.

For `O=C(OCc1ccccc1)c1ccccc1O` [BENZYL SALICYLATE, benzyl 2-hydroxybenzoate], the Actimood score with subject's mood [1] (setting [7]) is reported as 1. As to `CC(C=O)Cc1ccc2c(c1)OCO2` (stereo not shown) [3-(1,3-benzodioxol-5-yl)-2-methyl-propanal], the “IRT Score” value in the test on subject's mood [2] (setting [13]) turned out to be 742. In the case of `CCCCCCOC(C)=O` [HEXYL ACETATE, hexyl acetate], the Actimood score in the test on subject's mood [1] (setting [8]) is 1; in the test on subject's mood [1] (setting [12]), 2. As for `CC1=CC(C)C(C=O)CC1` (stereo not shown) [VERTOCITRAL, 2,4-Dimethylcyclohex-3-ene-1-carbaldehyde], the Actimood score is recorded as 1 in the test with subject's mood [1] (setting [8]) and 0 in the test with subject's mood [1] (setting [11]). Regarding `CC/C=C/CCO` [HEXENOL CIS-3 10% DPG, Hexenol], the Actimood score in the test on subject's mood [1] (setting [11]) is given as 0. As for `CC/C=C\CCOC(=O)OC` [LEAFOVERT ®, (Z)-Hex-3-en-1-yl methyl carbonate], the Actimood score in the test on subject's mood [1] (setting [12]) was found to be 3; in the test on subject's mood [1] (setting [7]), 0; with subject's mood [1] (setting [11]), 2. In the case of `O=C1CCCCCCCC=CCCCCCCO1` [AMBRETTOLIDE HC SUPREME, Oxacycloheptadec-10-en-2-one], the Actimood score in the test with subject's mood [1] (setting [3]) stood at 2. On to `CCCCCCCC1CCC(=O)O1` (stereo not shown) [ALDEHYDE C14 SO-CALLED, 5-heptyltetrahydrofuran-2-one], for which the Actimood score in the test with subject's mood [1] (setting [7]) is 2. For `CCC(=O)OCC(C)(C)OC(C)C1CCCC(C)(C)C1` (stereo not shown) [HELVETOLIDE, [2-[1-(3,3-dimethylcyclohexyl)ethoxy]-2-methyl-propyl]propanoate], the Actimood score in the test with subject's mood [1] (setting [14]) was 2; in the test on subject's mood [1] (setting [3]), 3; in the test on subject's mood [1] (setting [6]), 3; in the test with subject's mood [1] (setting [7]) it was 2. `CCCC(C)C(=O)OCC` (stereo not shown) [MANZANATE, ethyl-2-methylpentanoate]: the Actimood score in the test with subject's mood [1] (setting [12]) amounted to 3.
